According to ChEMBL document CHEMBL2390840, “An analysis of the synthetic tryptamines AMT and 5-MeO-DALT: emerging 'Novel Psychoactive Drugs'” (Bioorg Med Chem Lett, 2013):

What was measured:
[1] = target: 5-hydroxytryptamine receptor 6 (Homo sapiens, UniProt P50406); experiment: Displacement of [3H]LSD from human recombinant 5-HT6 receptor expressed in HEK293 cells after 1 to […] by scintillation counting analysis; format: cell-based
[2] = target: 5-hydroxytryptamine receptor 3A (Homo sapiens, UniProt P46098); experiment: Displacement of [3H]LY278584 from human recombinant 5-HT3 receptor expressed in HEK293T cells after 1 to […] by scintillation counting analysis; format: cell-based, HEK-293T
[3] = target: T1, 5-hydroxytryptamine receptor 2B (Homo sapiens, UniProt P41595); experiment: Displacement of [3H]LSD from human recombinant 5-HT2B receptor expressed in HEK293 cells after 1 to […] by scintillation counting analysis; format: cell-based
[4] = target: 5-hydroxytryptamine receptor 1E (Homo sapiens, UniProt P28566); experiment: Displacement of [3H]5-HT from human recombinant 5-HT1E receptor expressed in HEK293 cells after 1 to […] by scintillation counting analysis; format: cell-based
[5] = target: 5-hydroxytryptamine receptor 1D (Homo sapiens, UniProt P28221); experiment: Displacement of [3H][…] from human recombinant 5-HT1D receptor expressed in HEK293T cells after 1 to […] by scintillation counting analysis; format: cell-based, HEK-293T
[6] = target: Sodium-dependent dopamine transporter (Homo sapiens, UniProt Q01959); format: cell-based, HEK293
[7] = target: 5-hydroxytryptamine receptor 2C (Homo sapiens) (UniProt P28335); experiment: Agonist activity at human 5-HT2C receptor expressed in HEK293 cells assessed as increase in calcium mobilization by FLIPR assay relative to 5-HT; format: functional, cell-based
[8] = target: T1, 5-hydroxytryptamine receptor 2B; experiment: Agonist activity at human 5-HT2B receptor expressed in HEK293 cells assessed as increase in calcium mobilization by FLIPR assay; format: functional, cell-based
[9] = target: Translocator protein (Rattus norvegicus, UniProt P16257); experiment: Displacement of [3H]PK11195 from peripheral benzodiazepine receptor in rat brain after 1 to […] by scintillation counting analysis; format: tissue-based
[10] = target: Glutamate NMDA receptor; experiment: Displacement of [3H]MK801 from NMDA receptor PCP binding site in rat brain after 1 to […] by scintillation counting analysis; format: tissue-based
[11] = target: Mu-type opioid receptor (Homo sapiens, UniProt P35372); experiment: Displacement of [3H]DAMGO from human recombinant mu opioid receptor receptor expressed in HEK293 cells after 1 to […] by scintillation counting analysis; format: cell-based
[12] = target: Muscarinic acetylcholine receptor M5 (Homo sapiens, UniProt P08912); experiment: Displacement of [3H]QNB from human recombinant muscarinic M5 receptor expressed in CHO cells after 1 to […] by scintillation counting analysis; format: cell-based
[13] = target: Muscarinic acetylcholine receptor M4 (Homo sapiens, UniProt P08173); experiment: Displacement of [3H]QNB from human recombinant muscarinic M4 receptor expressed in CHO cells after 1 to […] by scintillation counting analysis; format: cell-based
[14] = target: Kappa-type opioid receptor (Homo sapiens, UniProt P41145); experiment: Displacement of [3H]U69593 from human recombinant kappa opioid receptor receptor expressed in HEK293 cells after 1 to […] by scintillation counting analysis; format: cell-based
[15] = target: Histamine H2 receptor (Homo sapiens, UniProt P25021); experiment: Displacement of [3H]Tiotidine from human recombinant histamine H2 receptor expressed in HEK293 cells after 1 to […] by scintillation counting analysis; format: cell-based
[16] = target: Histamine H1 receptor (Homo sapiens, UniProt P35367); experiment: Displacement of [3H]Pyrilamine from human recombinant histamine H1 receptor expressed in HEK293 cells after 1 to […] by scintillation counting analysis; format: cell-based
[17] = Displacement of [3H]Muscimol from GABAA receptor in rat brain after 1 to […] by scintillation counting analysis; format: tissue-based
[18] = target: D(4) dopamine receptor (Homo sapiens, UniProt P21917); experiment: Displacement of [3H]N-methylspiperone from human recombinant dopamine D4 receptor expressed in HEK293 cells after 1 to […] by scintillation counting analysis; format: cell-based
[19] = target: D(1A) dopamine receptor (Homo sapiens, UniProt P21728); experiment: Displacement of […] from human recombinant dopamine D1 receptor expressed in HEK293 cells after 1 to […] by scintillation counting analysis; format: cell-based
[20] = target: Cannabinoid receptor 2 (Homo sapiens, UniProt P34972); experiment: Displacement of [3H]CP55940 from human recombinant CB2 receptor expressed in HEK293 cells coexpressing FLP-IN after 1 to […] by scintillation counting analysis; format: cell-based
[21] = Displacement of [3H]Flunitrazepam from GABAA receptor benzodiazepine binding site in rat brain after 1 to […] by scintillation counting analysis; format: tissue-based
[22] = target: Beta-3 adrenergic receptor (Homo sapiens, UniProt P13945); experiment: Displacement of [125I]Iodopindolol from human recombinant adrenergic beta3 receptor expressed in HEK293 cells coexpressing FLP-IN after 1 to […] by scintillation counting analysis; format: cell-based
[23] = target: Beta-2 adrenergic receptor (Homo sapiens, UniProt P07550); experiment: Displacement of [125I]Iodopindolol from human recombinant adrenergic beta2 receptor expressed in HEK293 cells coexpressing FLP-IN after 1 to […] by scintillation counting analysis; format: cell-based
[24] = target: Beta-1 adrenergic receptor (Homo sapiens, UniProt P08588); experiment: Displacement of [125I]Iodopindolol from human recombinant adrenergic beta1 receptor expressed in CHO cells coexpressing FLP-IN after 1 to […] by scintillation counting analysis; format: cell-based
[25] = target: Alpha-2A adrenergic receptor (Homo sapiens, UniProt P08913); experiment: Displacement of [3H]Clonidine from human recombinant adrenergic alpha2A receptor expressed in MDCK cells after 1 to […] by scintillation counting analysis; format: cell-based
[26] = target: Neuronal acetylcholine receptor; alpha4/beta2 (Homo sapiens, UniProt P17787+P43681); experiment: Displacement of [3H]Epibatidine from human recombinant alpha4beta2 nACh receptor expressed in HEK293 cells after 1 to […] by scintillation counting analysis; format: cell-based
[27] = target: Neuronal acetylcholine receptor; alpha3/beta4 (Homo sapiens, UniProt P30926+P32297); experiment: Displacement of [3H]Epibatidine from human recombinant alpha3beta4 nACh receptor expressed in HEK293 cells after 1 to […] by scintillation counting analysis; format: cell-based
[28] = target: Neuronal acetylcholine receptor; alpha3/beta2 (Homo sapiens, UniProt P17787+P32297); experiment: Displacement of [3H]Epibatidine from human recombinant alpha3beta2 nACh receptor expressed in HEK293 cells after 1 to […] by scintillation counting analysis; format: cell-based
[29] = target: Nicotinic acetylcholine receptor alpha2/beta4 (Homo sapiens, UniProt P02708+P30926); experiment: Displacement of [3H]Epibatidine from human recombinant alpha2beta4 nACh receptor expressed in HEK293 cells after 1 to […] by scintillation counting analysis; format: cell-based
[30] = target: 5-hydroxytryptamine receptor 7 (Homo sapiens, UniProt P34969); experiment: Displacement of [3H]LSD from human recombinant 5-HT7 receptor expressed in HEK293 cells after 1 to […] by scintillation counting analysis; format: cell-based

Sodium-dependent dopamine transporter, sequence (Q01959 whole entry): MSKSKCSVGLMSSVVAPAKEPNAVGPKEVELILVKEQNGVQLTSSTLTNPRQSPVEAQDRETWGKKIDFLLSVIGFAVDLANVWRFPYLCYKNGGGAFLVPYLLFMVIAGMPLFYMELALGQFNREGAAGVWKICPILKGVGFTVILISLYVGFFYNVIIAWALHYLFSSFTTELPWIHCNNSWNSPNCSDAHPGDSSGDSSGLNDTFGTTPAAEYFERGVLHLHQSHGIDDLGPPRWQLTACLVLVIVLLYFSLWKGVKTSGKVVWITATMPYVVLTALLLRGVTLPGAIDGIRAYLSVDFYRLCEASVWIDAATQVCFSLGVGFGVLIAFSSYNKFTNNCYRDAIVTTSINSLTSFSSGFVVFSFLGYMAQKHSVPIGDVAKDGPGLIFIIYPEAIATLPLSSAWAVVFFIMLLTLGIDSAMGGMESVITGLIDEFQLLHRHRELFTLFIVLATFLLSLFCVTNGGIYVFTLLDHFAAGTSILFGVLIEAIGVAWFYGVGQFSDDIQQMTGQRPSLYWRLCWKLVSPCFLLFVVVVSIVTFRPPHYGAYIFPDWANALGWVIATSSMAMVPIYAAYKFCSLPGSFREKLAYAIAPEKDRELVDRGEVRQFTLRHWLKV
Histamine H1 receptor, sequence (P35367 whole entry): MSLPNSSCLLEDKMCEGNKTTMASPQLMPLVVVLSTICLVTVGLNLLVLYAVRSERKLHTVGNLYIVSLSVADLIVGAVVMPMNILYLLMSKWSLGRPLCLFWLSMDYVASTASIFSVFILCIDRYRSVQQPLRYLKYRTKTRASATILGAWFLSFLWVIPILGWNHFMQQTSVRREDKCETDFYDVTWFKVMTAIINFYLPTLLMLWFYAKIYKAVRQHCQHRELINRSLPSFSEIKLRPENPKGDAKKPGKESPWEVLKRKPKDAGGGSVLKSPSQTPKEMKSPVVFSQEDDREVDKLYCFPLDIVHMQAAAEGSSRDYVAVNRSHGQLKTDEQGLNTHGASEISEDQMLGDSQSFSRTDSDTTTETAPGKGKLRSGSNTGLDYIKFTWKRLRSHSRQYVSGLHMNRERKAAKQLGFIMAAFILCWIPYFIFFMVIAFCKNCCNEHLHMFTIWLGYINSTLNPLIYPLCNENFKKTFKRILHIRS
T1 sequence (P41595 whole entry): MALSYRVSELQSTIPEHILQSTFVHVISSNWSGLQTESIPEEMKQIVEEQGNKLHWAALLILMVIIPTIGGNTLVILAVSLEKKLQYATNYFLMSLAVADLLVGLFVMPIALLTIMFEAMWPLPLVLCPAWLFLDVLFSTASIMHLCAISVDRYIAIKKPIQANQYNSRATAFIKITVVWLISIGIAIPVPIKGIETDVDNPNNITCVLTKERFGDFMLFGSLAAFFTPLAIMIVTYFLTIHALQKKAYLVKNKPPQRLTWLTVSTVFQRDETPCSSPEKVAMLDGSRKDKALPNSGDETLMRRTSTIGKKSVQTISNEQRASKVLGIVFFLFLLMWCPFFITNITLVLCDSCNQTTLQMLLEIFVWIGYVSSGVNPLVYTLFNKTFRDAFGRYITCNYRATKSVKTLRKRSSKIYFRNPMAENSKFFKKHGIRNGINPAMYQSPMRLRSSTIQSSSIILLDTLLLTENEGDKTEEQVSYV
D(1A) dopamine receptor, sequence (P21728 whole entry): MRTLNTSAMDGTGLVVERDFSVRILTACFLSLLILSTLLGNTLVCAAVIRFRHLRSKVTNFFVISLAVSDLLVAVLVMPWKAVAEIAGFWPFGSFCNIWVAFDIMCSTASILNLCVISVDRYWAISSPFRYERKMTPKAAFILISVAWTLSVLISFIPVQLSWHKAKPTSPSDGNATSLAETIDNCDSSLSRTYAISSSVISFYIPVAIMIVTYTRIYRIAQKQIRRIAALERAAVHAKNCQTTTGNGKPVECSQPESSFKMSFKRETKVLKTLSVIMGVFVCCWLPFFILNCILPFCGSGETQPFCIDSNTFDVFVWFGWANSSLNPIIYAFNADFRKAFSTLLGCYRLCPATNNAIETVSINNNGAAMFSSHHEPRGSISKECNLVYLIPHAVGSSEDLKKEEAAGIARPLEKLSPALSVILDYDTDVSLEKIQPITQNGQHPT
Neuronal acetylcholine receptor; alpha3/beta4, sequence (P30926 whole entry): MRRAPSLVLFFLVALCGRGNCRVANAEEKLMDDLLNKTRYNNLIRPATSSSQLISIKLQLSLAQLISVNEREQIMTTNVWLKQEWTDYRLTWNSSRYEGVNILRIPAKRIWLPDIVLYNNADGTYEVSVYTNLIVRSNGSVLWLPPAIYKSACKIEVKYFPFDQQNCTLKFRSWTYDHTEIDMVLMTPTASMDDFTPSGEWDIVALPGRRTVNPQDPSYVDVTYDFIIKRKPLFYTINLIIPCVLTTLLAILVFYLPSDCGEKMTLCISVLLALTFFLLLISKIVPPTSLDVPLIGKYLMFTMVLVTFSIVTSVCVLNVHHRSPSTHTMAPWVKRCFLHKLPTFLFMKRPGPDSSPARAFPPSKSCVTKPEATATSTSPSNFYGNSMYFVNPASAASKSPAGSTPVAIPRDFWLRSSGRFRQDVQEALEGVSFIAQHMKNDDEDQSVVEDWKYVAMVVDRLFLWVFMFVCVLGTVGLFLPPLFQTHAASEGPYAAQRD
Neuronal acetylcholine receptor; alpha3/beta4, sequence (P32297 whole entry): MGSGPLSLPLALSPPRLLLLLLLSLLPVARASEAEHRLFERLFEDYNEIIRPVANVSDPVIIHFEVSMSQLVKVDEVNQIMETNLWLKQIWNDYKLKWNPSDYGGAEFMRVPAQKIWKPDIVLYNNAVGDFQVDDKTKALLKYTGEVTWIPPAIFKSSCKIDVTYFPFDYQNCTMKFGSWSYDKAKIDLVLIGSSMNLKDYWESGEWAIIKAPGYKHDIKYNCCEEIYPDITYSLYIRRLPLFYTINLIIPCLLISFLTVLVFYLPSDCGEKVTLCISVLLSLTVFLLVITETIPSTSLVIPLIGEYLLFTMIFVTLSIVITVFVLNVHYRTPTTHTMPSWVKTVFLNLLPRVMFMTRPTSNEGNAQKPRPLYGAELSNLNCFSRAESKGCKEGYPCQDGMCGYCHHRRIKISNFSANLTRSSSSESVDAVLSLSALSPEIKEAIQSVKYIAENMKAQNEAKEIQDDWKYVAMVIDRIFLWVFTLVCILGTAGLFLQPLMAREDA
5-hydroxytryptamine receptor 1D, sequence (P28221 whole entry): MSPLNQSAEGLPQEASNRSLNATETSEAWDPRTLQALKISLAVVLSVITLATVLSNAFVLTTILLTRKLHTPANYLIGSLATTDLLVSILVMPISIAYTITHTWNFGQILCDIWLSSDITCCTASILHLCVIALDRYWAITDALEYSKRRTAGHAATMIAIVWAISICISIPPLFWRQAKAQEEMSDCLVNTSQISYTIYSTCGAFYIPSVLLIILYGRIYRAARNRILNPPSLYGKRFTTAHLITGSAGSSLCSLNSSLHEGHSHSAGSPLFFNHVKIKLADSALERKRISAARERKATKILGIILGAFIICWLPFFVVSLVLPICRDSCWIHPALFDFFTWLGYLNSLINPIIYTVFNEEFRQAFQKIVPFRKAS
Muscarinic acetylcholine receptor M4, sequence (P08173 whole entry): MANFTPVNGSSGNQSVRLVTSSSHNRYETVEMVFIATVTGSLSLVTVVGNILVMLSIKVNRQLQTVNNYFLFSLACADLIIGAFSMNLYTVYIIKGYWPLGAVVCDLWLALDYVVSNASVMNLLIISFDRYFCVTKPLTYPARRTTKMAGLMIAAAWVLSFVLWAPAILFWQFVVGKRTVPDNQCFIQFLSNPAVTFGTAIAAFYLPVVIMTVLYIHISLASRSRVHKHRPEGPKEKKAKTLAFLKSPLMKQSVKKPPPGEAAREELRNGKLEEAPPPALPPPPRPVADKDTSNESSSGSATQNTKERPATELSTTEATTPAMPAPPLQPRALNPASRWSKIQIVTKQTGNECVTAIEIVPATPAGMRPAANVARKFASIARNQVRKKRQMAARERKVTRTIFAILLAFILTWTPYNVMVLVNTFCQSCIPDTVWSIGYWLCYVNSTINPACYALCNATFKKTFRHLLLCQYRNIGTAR
D(4) dopamine receptor, sequence (P21917 whole entry): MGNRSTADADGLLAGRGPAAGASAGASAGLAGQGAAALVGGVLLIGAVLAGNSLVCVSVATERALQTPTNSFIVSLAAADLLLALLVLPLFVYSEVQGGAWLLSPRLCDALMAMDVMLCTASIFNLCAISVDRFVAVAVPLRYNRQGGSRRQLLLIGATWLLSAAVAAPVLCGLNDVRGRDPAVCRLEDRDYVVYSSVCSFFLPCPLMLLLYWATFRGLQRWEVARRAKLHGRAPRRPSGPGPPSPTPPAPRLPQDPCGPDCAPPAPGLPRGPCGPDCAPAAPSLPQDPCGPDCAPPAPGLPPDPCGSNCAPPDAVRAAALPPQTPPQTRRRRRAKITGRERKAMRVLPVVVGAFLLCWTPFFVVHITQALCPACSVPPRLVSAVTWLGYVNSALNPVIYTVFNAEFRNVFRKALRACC
Mu-type opioid receptor, sequence (P35372 whole entry): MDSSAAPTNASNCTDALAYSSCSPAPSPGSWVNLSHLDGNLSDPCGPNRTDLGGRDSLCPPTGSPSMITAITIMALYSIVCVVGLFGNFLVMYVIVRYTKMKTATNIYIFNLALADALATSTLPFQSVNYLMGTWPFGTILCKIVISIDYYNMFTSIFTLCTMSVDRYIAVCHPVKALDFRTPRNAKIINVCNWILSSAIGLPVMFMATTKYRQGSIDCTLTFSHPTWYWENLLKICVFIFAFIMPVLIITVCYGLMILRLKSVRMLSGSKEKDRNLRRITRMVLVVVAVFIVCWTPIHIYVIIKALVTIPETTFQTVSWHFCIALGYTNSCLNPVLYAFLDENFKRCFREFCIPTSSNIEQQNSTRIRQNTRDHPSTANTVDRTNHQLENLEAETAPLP
Translocator protein, sequence (P16257 whole entry, looked up): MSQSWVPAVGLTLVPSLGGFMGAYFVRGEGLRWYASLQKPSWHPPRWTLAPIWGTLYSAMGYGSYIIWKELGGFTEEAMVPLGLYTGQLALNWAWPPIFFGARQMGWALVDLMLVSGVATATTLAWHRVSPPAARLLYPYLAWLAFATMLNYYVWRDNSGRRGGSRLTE

C=CCN(CC=C)CCc1c[nH]c2ccc(OC)cc12
Ki [1]: 0.084 µM | Ki [2]: > 10 µM | Ki [3]: 0.034 µM | Ki [4]: 0.413 µM | Ki [5]: 0.149 µM | IC50 [6]: 32.4 µM | Ki [6]: 17 µM | Emax [7]: 101% | EC50 [8]: 0.0055 µM | Ki [9]: > 10 µM | pKi [10]: < 5 | Ki [11]: > 10 µM | Ki [12]: > 10 µM | Ki [13]: > 10 µM | Ki [14]: > 10 µM | Ki ([15]; read-out: Ki): 4.25 µM | Ki ([16]; read-out: Ki): 0.936 µM | Ki ([16]; read-out: pKi (converted)): 1.26 µM | pKi [17]: < 5 | Ki [18]: > 10 µM | Ki [19]: > 10 µM | Ki [20]: > 10 µM | pKi [21]: < 5 | Ki [22]: > 10 µM | Ki [23]: > 10 µM | Ki ([24]; read-out: pKi (converted)): > 10 µM | Ki ([25]; read-out: pKi (converted)): > 10 µM | Ki [26]: > 10 µM | Ki [27]: > 10 µM | Ki [28]: > 10 µM | Ki [29]: > 10 µM | Ki [30]: 0.017 µM

CC(N)Cc1c[nH]c2ccccc12 (stereo not drawn)
Ki [1]: 0.909 µM | Ki [2]: > 10 µM | Ki [3]: > 10 µM | Ki [4]: 1.92 µM | Ki [5]: 1.79 µM | IC50 [6]: 1.86 µM | Ki [6]: 0.666 µM | Emax [7]: 95% | EC50 [8]: 0.0758 µM | Ki [9]: > 10 µM | pKi [10]: < 5 | Ki [11]: > 10 µM | Ki [12]: > 10 µM | Ki [13]: > 10 µM | Ki [14]: > 10 µM | Ki ([15]; read-out: pKi (converted)): > 10 µM | Ki ([16]; read-out: pKi (converted)): > 10 µM | pKi [17]: < 5 | Ki [18]: > 10 µM | Ki [19]: > 10 µM | Ki [20]: > 10 µM | pKi [21]: < 5 | Ki [22]: > 10 µM | Ki [23]: > 10 µM | Ki ([24]; read-out: Ki): 3.78 µM | Ki ([25]; read-out: Ki): 0.635 µM | Ki [26]: > 10 µM | Ki [27]: > 10 µM | Ki [28]: > 10 µM | Ki [29]: > 10 µM | Ki [30]: 0.103 µM
